Results from ChEMBL document CHEMBL6134825, “Mechanisms and therapeutic strategies for NLRP3 degradation via post-translational modifications in ubiquitin-proteasome and autophagy lysosomal pathway” (Eur J Med Chem, 2025).

Columns and labels:
[1] = Metabolic stability in rat liver microsomes assessed as half life measured for 60 mins by LC-MS/MS analysis; type: ADME, Microsome
[2] = Microsomal metabolic stability in Beagle dog liver microsomes assessed as half life […] by LC-MS/MS analysis; type: ADME, Canis lupus familiaris, Microsome
[3] = AUC(0 to t) in Beagle dog at 3.6 mg/kg, po measured for 24 hrs by LC-MS/MS analysis; type: ADME, organism-based, Canis lupus familiaris; conditions: in vivo
[4] = Oral bioavailability in Beagle dog at 3.6 mg/kgm measured for 24 hrs by LC-MS/MS analysis; type: ADME, organism-based, Canis lupus familiaris; conditions: in vivo, dose 3.6 mg/kg
[5] = AUC(0 to t) in ICR mouse plasma at 5 mg/kg, po measured for 60 mins by LC-MS/MS analysis; type: ADME, organism-based
[6] = Oral bioavailability in ICR mouse at 5 mg/kg; type: ADME, organism-based; conditions: in vivo
[7] = AUC(0 to t) in Sprague-Dawley rat at 300 mg/kg, po measured up to 24 hrs by LC-MS/MS analysis; type: ADME, organism-based; conditions: in vivo
[8] = Metabolic stability in human liver microsome assessed as half life; conditions: liver microsomes
[9] = Oral bioavailability in human at 2 microg/kg measured for 60 mins by LC-MS/MS analysis; conditions: in vivo, 0.002 mg/kg
[10] = AUC(0 to t) in ICR mouse plasma at 2 microg/kg, po measured for 60 mins by LC-MS/MS analysis; conditions: 0.002 mg/kg
[11] = Acute toxicity in po dosed ICR mouse assessed as lethal dose; type: organism-based; conditions: in vivo
[12] = AUC(0 to t) in Sprague-Dawley rat at 20 mg/kg, po measured up to 24 hrs by LC-MS/MS analysis; type: ADME, organism-based; conditions: in vivo
[13] = Oral bioavailability in Sprague-Dawley rat at 20 mg/kg by LC-MS/MS analysis; type: ADME, organism-based; conditions: in vivo
[14] = Oral bioavailability in Sprague-Dawley rat at 5 mg/kg by LC-MS/MA analysis; type: ADME, organism-based; conditions: in vivo
[15] = Toxicity in rat assessed as lethal dose; conditions: in vivo
[16] = AUC(0 to t) in Sprague-Dawley rat at 5 mg/kg, po measured up to 24 hrs by LC-MS/MS analysis; type: ADME, organism-based; conditions: in vivo
[17] = Toxicity in ip dosed rat assessed as lethal dose; type: organism-based; conditions: in vivo
[18] = Toxicity in iv dosed rat assessed as lethal dose; type: organism-based; conditions: in vivo

**Q.** For Cc1cnc(-c2ccccc2C(C)C)nc1NCc1ccc(-n2ccnn2)cc1, which half-life [1] is on record?
**A.** 0.2 h

**Q.** With C[C@@H]1C(=O)O[C@H]2[C@@H](O)C34[C@H]5C[C@@H](C(C)(C)C)C36[C@@H](OC(=O)[C@@H]6O)O[C@@]4(C(=O)O5)[C@@]12O (stereo partly drawn) as the compound, how does the half-life [2] read?
**A.** 1 h

**Q.** And the AUC(0-t) at 24 h [3]?
**A.** 356 µg·h/mL

**Q.** What about the bioavailability [4] of the same compound?
**A.** 17%

**Q.** With O=C(Nc1c2c(cc3c1CCC3)CCC2)NS(=O)(=O)c1ccc(OCCOCCOCCOCCN2C(=O)/C(=C\c3cc(Br)c(O)c(Br)c3)c3cc(I)ccc32)cc1 as the compound, how does the AUC(0-t) at 1 h [5] read?
**A.** 551 µg·h/mL

**Q.** What about the bioavailability [6] of the same compound?
**A.** 19%

**Q.** For O=C1c2cccc(O)c2C(=O)c2c(O)cc(CO)cc21 [ALOE-EMODIN], which AUC(0-t) at 24 h [7] is on record?
**A.** 42.8 µg·h/mL

**Q.** Which half-life [8] does the source give for Cc1cccc([C@H](C)c2cnc[nH]2)c1C [DEXMEDETOMIDINE] here?
**A.** 2 h

**Q.** What about the bioavailability at 1 h [9] of the same compound?
**A.** 15.6%

**Q.** And the AUC(0-t) at 1 h [10]?
**A.** 0.45 µg·h/mL

**Q.** With COc1cc(/C=C/C(=O)O)ccc1O [FERULATE] as the compound, how does the LD50 [11] read?
**A.** 3200 mg/kg

**Q.** With O=c1c(O)c(-c2ccc(O)cc2)oc2cc(O)cc(O)c12 [KAEMPFEROL] as the compound, how does the AUC(0-t) at 24 h [12] read?
**A.** 234 µg·h/mL

**Q.** What about the bioavailability [13] of the same compound?
**A.** 2%

**Q.** And the bioavailability [14]?
**A.** 7%

**Q.** What about the LD50 [15] of the same compound?
**A.** 3810 mg/kg

**Q.** For O=c1c(-c2ccc(O)cc2)coc2c([C@@H]3O[C@H](CO)[C@@H](O)[C@H](O)[C@H]3O)c(O)ccc12 [PUERARIN], which AUC(0-t) at 24 h [16] is on record?
**A.** 109 µg·h/mL

**Q.** What about the LD50 [17] of the same compound?
**A.** 1410 mg/kg

**Q.** What about the LD50 [18] of the same compound?
**A.** 634 mg/kg
